Test results from patent publication US9855236B2, “Pharmaceutical compositions comprising DGLA and/or 15-HETrE and methods of use thereof” (Dignity Sciences Limited, priority 2011, dated 2018).

What was measured:
[1] = tested on: UV-induced edema and erythema; assay: Sinclair miniature swine phototoxicity model: sites exposed to UV, then treated topically for 7 days (treatment); assay type: in vivo; details: for average Draize score as compared to test sites treated with the control vehicle: test sites first exposed to UV radiation, then treated topically twice daily for 7 days, any of the tested dosages, vehicle ethanol, FIGS. 1-6; for treating or reversing UV induced erythema: topical application after UV exposure
Procedure: Compositions comprising DGLA and/or 15-HETrE were tested for their ability to treat and/or prevent edema and erythema (e.g., UV induced erythema). In an exemplary method, a Sinclair miniature swine model of phototoxicity testing was employed to examine the effects of such compositions on UV-induced edema and erythema. Miniature swine were chosen for these studies as they have a skin structure that closely resembles that of humans. The miniature swine used in these studies were fed standard Sinclair S-9 ration or equivalent, once a day at a maintenance amount and had ad libitum access to deep well water. Throughout the study, the swine were housed individually in cages (˜3×5 ft) constructed of stainless steel with self-spanned polyvinyl chloride (PVC)-coated expanded metal flooring. The animal housing rooms were set to maintain a room temperature of 16 to 27° C. (61 to 81° F.), with fluorescent lights providing an approximate 12-hr light/12-hr dark photoperiod. The animals were acclimated for approximately 5 days prior to the start of dosing. During acclimation, animals were subject to a physical examination by a veterinarian and any animal with questionable health was excluded from these studies. For these studies, two groups each consisting of three animals (#1-#3) were used. For each animal, ten sites (e.g., dose sites) for were established on the torso and the hair at the site was clipped with an electric clipper. These sites were then shaved and demarcated by tattooing at least four days prior to the start of initial dosing on study day 1. The dose sites may be shaved with a razor the day prior to initial dose administration and prior to the second and third application when applicable. The sites (approximately 4 cm^2 in size) were evenly split on the left and right side with 5 sites demarcated on each side. Each animal was topically administered a composition comprising a control vehicle (ethanol), DGLA or HETrE to the demarcated test sites on the animal before and/or after exposure of the test sites to UV radiation. Specifically, a 0.1 mL dose of a composition comprising 1 mg/mL, 10 mg/mL, or 100 mg/mL of DGLA and a 0.1 mL dose of a composition comprising 0.1 mg/mL, 1.0 mg/mL, or 10 mg/mL 15-HETrE was applied to separate 4 cm^2 areas of the skin (e.g., test sites) on each animal to achieve a dose per area of 0.1 mg/4 cm^2, 1.0 mg/4 cm^2, or 10.0 mg/4 cm^2 DGLA or 0.1 mg/4 cm^2, 1.0 mg/4 cm^2, or 10.0 mg/4 cm^2 15-HETrE, respectively. Such compositions were applied via a pipette twice daily with approximately seven hours between administrations over 7 days. Table 1 below outlines the dosing regimen for the 10 sites on each animal and indicates the day that the animal was administered a dose of UV radiation. […]

[2] = tested on: UV-induced edema and erythema; assay: Sinclair miniature swine phototoxicity model: sites treated topically for 7 days, then exposed to UV (prevention); assay type: in vivo; details: for prevention of UV-induced erythema: topical before UV exposure; for average Draize score as compared to test sites treated with the control vehicle: test sites first treated topically twice daily for 7 days, then exposed to UV radiation, vehicle ethanol, FIGS. 7-12
Procedure: Compositions comprising DGLA and/or 15-HETrE were tested for their ability to treat and/or prevent edema and erythema (e.g., UV induced erythema). In an exemplary method, a Sinclair miniature swine model of phototoxicity testing was employed to examine the effects of such compositions on UV-induced edema and erythema. Miniature swine were chosen for these studies as they have a skin structure that closely resembles that of humans. The miniature swine used in these studies were fed standard Sinclair S-9 ration or equivalent, once a day at a maintenance amount and had ad libitum access to deep well water. Throughout the study, the swine were housed individually in cages (˜3×5 ft) constructed of stainless steel with self-spanned polyvinyl chloride (PVC)-coated expanded metal flooring. The animal housing rooms were set to maintain a room temperature of 16 to 27° C. (61 to 81° F.), with fluorescent lights providing an approximate 12-hr light/12-hr dark photoperiod. The animals were acclimated for approximately 5 days prior to the start of dosing. During acclimation, animals were subject to a physical examination by a veterinarian and any animal with questionable health was excluded from these studies. For these studies, two groups each consisting of three animals (#1-#3) were used. For each animal, ten sites (e.g., dose sites) for were established on the torso and the hair at the site was clipped with an electric clipper. These sites were then shaved and demarcated by tattooing at least four days prior to the start of initial dosing on study day 1. The dose sites may be shaved with a razor the day prior to initial dose administration and prior to the second and third application when applicable. The sites (approximately 4 cm^2 in size) were evenly split on the left and right side with 5 sites demarcated on each side. Each animal was topically administered a composition comprising a control vehicle (ethanol), DGLA or HETrE to the demarcated test sites on the animal before and/or after exposure of the test sites to UV radiation. Specifically, […] comprising 0.1 mg/mL, 1.0 mg/mL, or 10 mg/mL 15-HETrE was applied to separate 4 cm^2 areas of the skin (e.g., test sites) on each animal to achieve a dose per area of 0.1 mg/4 cm^2, 1.0 mg/4 cm^2, or 10.0 mg/4 cm^2 DGLA or 0.1 mg/4 cm^2, 1.0 mg/4 cm^2, or 10.0 mg/4 cm^2 15-HETrE, respectively. Such compositions were applied via a pipette twice daily with approximately seven hours between administrations over 7 days. Table 1 below outlines the dosing regimen for the 10 sites on each animal and indicates the day that the animal was administered a dose of UV radiation. For example, for test sites 5-7, the sites were first exposed to UV radiation on day 4 and then contacted topically with DGLA or HETrE on days 4-10. Additionally, for example, for test sites 8-10, the sites were topically contacted with DGLA or HETrE on days 1-7 and then exposed to UV radiation on day 8. [table] Animals receiving UV light were anesthetized via isoflurane gas and 100% oxygen. To exposure the animals to UV, a bank of fluorescent lamps utilizing 10 UVA and 1 UVB bulb was then suspended over the animal. The correct dose level of UV light applied to the designated dose site was verified using a Solar Light® light meter. Animals were exposed to MED/hi of 4 for a time period of 21 minutes yielding a MEDi of 1.4. […]

| Structure (SMILES) | average Draize score as compared to test sites treated with the control vehicle [1] | treating or reversing UV induced erythema [1] | skin irritation by the high dose ([2]; 10 mg/mL dose of DGLA, topical, prevention of erythema could not be determined at this dose) | prevention of UV-induced erythema ([2]; dose of 0.1 or 1.0 mg/mL DGLA) | average Draize score as compared to test sites treated with the control vehicle [2] | prevention of UV-induced erythema ([2]; dose of 0.01, 0.1, or 1.0 mg/mL HETrE) |
| --- | --- | --- | --- | --- | --- | --- |
| CCCCC/C=C\C/C=C\C/C=C\CCCCCCC(=O)O [DGLA, cis-8,11,14-eicosatrienoic acid] | did not exhibit an appreciable difference | not capable of treating or reversing UV induced erythema | irritating to the skin | able to prevent UV-induced erythema | significant reduction | – |
| CCCCCC(O)/C=C/C=C\C/C=C\CCCCCCC(=O)O (stereo not drawn) [HETrE, 15-Hydroxy-eicosa-8(Z),11(Z),13(E)-trienoic acid] | did not exhibit an appreciable difference | not capable of treating or reversing UV induced erythema | – | – | significant reduction | able to prevent UV-induced erythema |
